Results taken from patent publication US20080044484A1, “Use of polymeric nanoparticles for vaccine delivery” (THE REGENTS OF THE UNIVERSITY OF CALIFORNIA, priority 2004, published 2008).

System: peptide-loaded MDA-MB-231 cells
Assay: Mechanisms of peptide loading: acid stripping, pronase, Brefeldin A, 51Cr-release
Type: cell-based, human
Source text: To distinguish between loading of the peptides into the cytosol and simple binding of these peptides to the surface MHC molecules several approaches were used. First, β2-microglobulin was removed from the surface of peptide-loaded tumor cells by acid stripping. […] Second, pronase was used for complete enzymatic digestion of HLA molecules on the cell surface after loading in order to be able to detect the appearance of new internally formed HLA-peptide complexes on the cell surface, but not pulsing of the cells. Third, Brefeldin A (BFA), a metabolite of the fungus Eupenicillium brefeldianum, was used which specifically blocks protein transport from the ER to Golgi apparatus.
These experiments confirmed that the antigenic peptides were introduced into the cytosol of the cells, resulting in a prolonged and more efficient antigen presentation.

With `C[C@H]1CCC/C=C/[C@@H]2C[C@H](O)C[C@H]2[C@H](O)/C=C/C(=O)O1` [Brefeldin A] as the molecule, how does the “Blocking of recognition of peptide-loaded tumor cells by HER2/neu-specific CTL” value read?
Its value is “specifically blocks the recognition”.
